Calls of active or inactive are those of the source. No cut-off for these calls is given here. Positions of bridges follow the written chain, without caps; N, C: chain ends. Residues, ends and D or L forms follow the SMILES beside them.
Assays:
Urotensin-2 receptor [1] = target: T1, Urotensin-2 receptor (Rattus norvegicus, UniProt P49684); assay: Agonist activity at urotensin-2 receptor in Sprague-Dawley rat aortic rings assessed as KCl-induced vasoconstriction
T1 sequence (P49684 whole entry): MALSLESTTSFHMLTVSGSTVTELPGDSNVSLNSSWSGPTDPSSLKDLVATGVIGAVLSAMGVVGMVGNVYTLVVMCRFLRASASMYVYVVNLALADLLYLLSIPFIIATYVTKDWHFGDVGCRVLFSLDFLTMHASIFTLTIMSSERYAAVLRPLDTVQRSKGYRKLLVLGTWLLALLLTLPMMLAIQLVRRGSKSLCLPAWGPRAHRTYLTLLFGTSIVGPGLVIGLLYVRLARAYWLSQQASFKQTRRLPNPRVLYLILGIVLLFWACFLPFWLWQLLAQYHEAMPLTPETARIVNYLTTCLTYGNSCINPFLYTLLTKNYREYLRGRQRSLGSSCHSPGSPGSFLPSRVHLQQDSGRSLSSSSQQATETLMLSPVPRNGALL

Urotensin-2 receptor [2] = target: T2, Urotensin-2 receptor (Homo sapiens, UniProt Q9UKP6); assay: Displacement of [125I]-Urotensin-2 from human GPR14 expressed in CHO cells after 90 mins by gamma counting analysis; format: cell-based
T2 sequence (Q9UKP6 whole entry): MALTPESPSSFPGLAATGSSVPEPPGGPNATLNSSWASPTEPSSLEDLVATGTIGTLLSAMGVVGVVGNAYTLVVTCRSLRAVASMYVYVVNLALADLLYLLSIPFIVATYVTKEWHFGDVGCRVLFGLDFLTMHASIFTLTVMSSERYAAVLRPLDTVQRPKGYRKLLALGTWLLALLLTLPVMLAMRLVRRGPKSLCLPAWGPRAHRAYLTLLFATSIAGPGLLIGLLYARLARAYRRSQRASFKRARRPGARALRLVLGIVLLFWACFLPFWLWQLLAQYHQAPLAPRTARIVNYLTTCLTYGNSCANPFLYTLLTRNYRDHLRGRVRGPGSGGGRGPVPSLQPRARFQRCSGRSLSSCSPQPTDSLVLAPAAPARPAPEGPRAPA

[3] = target: T3, Urotensin-2 receptor (Rattus norvegicus) (UniProt P49684); assay: Agonist activity at urotensin-2 receptor in Sprague-Dawley rat aortic rings assessed as KCl-induced vasoconstriction at 3 X 10^-11 to 3 X 10^-6 M relative to control
T3 sequence (whole entry): T1 sequence (P49684 whole entry)

[4] = target: T3, Urotensin-2 receptor (Rattus norvegicus); assay: Agonist activity at urotensin-2 receptor in Sprague-Dawley rat aortic rings assessed as KCl-induced vasoconstriction at 10^-5.5 M relative to control

| SMILES | EC50 (Urotensin-2 receptor [1]; read-out: EC50) [nM] | Emax [3] | EC50 (Urotensin-2 receptor [1]; read-out: pEC50 (converted)) [nM] | other results |
| --- | --- | --- | --- | --- |
| CC(C)[C@H](NC(=O)[C@@H]1CSSC[C@H](NC(=O)[C@H](C)N)C(=O)N[C@@H](Cc2ccccc2)C(=O)N[C@@H](Cc2cccc3ccccc23)C(=O)N[C@@H](CCCCN)C(=O)N[C@@H](Cc2ccc(O)cc2)C(=O)N1)C(=O)O | 54 | 86% |  | IC50 (Urotensin-2 receptor [2]; read-out: IC50): 17 nM |
| CC(C)[C@H](NC(=O)[C@@H]1CSSC[C@H](NC(=O)[C@H](C)N)C(=O)N[C@@H](Cc2ccccc2)C(=O)N[C@@H](C(C)(C)C)C(=O)N[C@@H](CCCCN)C(=O)N[C@@H](Cc2ccc(O)cc2)C(=O)N1)C(=O)O |  | inactive |  | EC50 (Urotensin-2 receptor [1]): Not Active; IC50 (Urotensin-2 receptor [2]; read-out: pIC50 (converted)): > 10000 nM |
| CC(C)[C@H](NC(=O)[C@@H]1CSSC[C@H](NC(=O)[C@H](C)N)C(=O)N[C@@H](Cc2ccccc2)C(=O)N2Cc3ccccc3C[C@@H]2C(=O)N[C@@H](CCCCN)C(=O)N[C@@H](Cc2ccc(O)cc2)C(=O)N1)C(=O)O | 259 | 128% | 832 |  |
| CC(C)[C@H](NC(=O)[C@@H]1CSSC[C@H](NC(=O)[C@H](C)N)C(=O)N[C@@H](Cc2ccccc2)C(=O)N2CCc3ccccc3[C@@H]2C(=O)N[C@@H](CCCCN)C(=O)N[C@@H](Cc2ccc(O)cc2)C(=O)N1)C(=O)O | 21 | 113% |  | IC50 (Urotensin-2 receptor [2]; read-out: IC50): 21 nM |
| CC(C)[C@H](NC(=O)[C@@H]1CSSC[C@H](NC(=O)[C@H](C)N)C(=O)N[C@@H](Cc2ccccc2)C(=O)N2Cc3[nH]c4ccccc4c3C[C@@H]2C(=O)N[C@@H](CCCCN)C(=O)N[C@@H](Cc2ccc(O)cc2)C(=O)N1)C(=O)O |  |  |  | Emax [4]: 42% |
| CC(C)[C@H](NC(=O)[C@@H]1CSSC[C@H](NC(=O)[C@H](C)N)C(=O)N[C@@H](Cc2ccccc2)C(=O)N2Cc3[nH]c4ccccc4c3C[C@H]2C(=O)N[C@@H](CCCCN)C(=O)N[C@@H](Cc2ccc(O)cc2)C(=O)N1)C(=O)O |  | 139% |  |  |
| CC(C)[C@H](NC(=O)[C@@H]1CSSC[C@H](NC(=O)[C@H](C)N)C(=O)N[C@@H](Cc2ccccc2)C(=O)N2CCc3ccccc3[C@H]2C(=O)N[C@@H](CCCN)C(=O)N[C@@H](Cc2ccc(O)cc2)C(=O)N1)C(=O)O |  | inactive |  | EC50 (Urotensin-2 receptor [1]): Not Active; IC50 (Urotensin-2 receptor [2]; cho): Not Active |
| CC(C)[C@H](NC(=O)[C@@H]1CSSC[C@H](NC(=O)[C@H](C)N)C(=O)N[C@@H](Cc2ccccc2)C(=O)N[C@@H](Cc2ccc(I)cc2)C(=O)N[C@@H](CCCCN)C(=O)N[C@@H](Cc2ccc(O)cc2)C(=O)N1)C(=O)O |  |  |  | Emax [4]: 92%; IC50 (Urotensin-2 receptor [2]; read-out: IC50): 58 nM |
| CC(C)[C@H](NC(=O)[C@@H]1CSSC[C@H](NC(=O)[C@H](C)N)C(=O)N[C@@H](Cc2ccccc2)C(=O)N[C@@H](Cc2c[nH]c3ccccc23)C(=O)N[C@@H](CCCCN)C(=O)N[C@@H](Cc2ccc(O)cc2)C(=O)N1)C(=O)O | 7 | 100% | 8.13 |  |
| CC(C)[C@H](NC(=O)[C@@H]1CSSC[C@H](NC(=O)[C@H](C)N)C(=O)N[C@@H](Cc2ccccc2)C(=O)N[C@H](C(C)(C)C)C(=O)N[C@@H](CCCCN)C(=O)N[C@@H](Cc2ccc(O)cc2)C(=O)N1)C(=O)O |  |  | > 1000 | Emax [4]: 64%; IC50 (Urotensin-2 receptor [2]; read-out: pIC50 (converted)): > 1000 nM |
| CC(C)[C@H](NC(=O)[C@@H]1CSSC[C@H](NC(=O)[C@H](C)N)C(=O)N[C@@H](Cc2ccccc2)C(=O)N[C@H](c2ccccc2)C(=O)N[C@@H](CCCCN)C(=O)N[C@@H](Cc2ccc(O)cc2)C(=O)N1)C(=O)O | 117 | 116% |  | IC50 (Urotensin-2 receptor [2]; read-out: pIC50 (converted)): 27.5 nM |
| CC(C)[C@H](NC(=O)[C@@H]1CSSC[C@H](NC(=O)[C@H](C)N)C(=O)N[C@@H](Cc2ccccc2)C(=O)N[C@@H](c2ccccc2)C(=O)N[C@@H](CCCCN)C(=O)N[C@@H](Cc2ccc(O)cc2)C(=O)N1)C(=O)O | 251 | 102% |  |  |
| CC(C)[C@H](NC(=O)[C@@H]1CSSC[C@H](NC(=O)[C@H](CC(=O)O)NC(=O)[C@@H]2CCCN2C(=O)[C@@H](NC(=O)[C@@H](N)CCC(=O)O)[C@@H](C)O)C(=O)N[C@@H](Cc2ccccc2)C(=O)N2CCC[C@H]2C(=O)N[C@@H](CCCCN)C(=O)N[C@@H](Cc2ccc(O)cc2)C(=O)N1)C(=O)O (H-ETPDCFPKYCV-OH; disulfide 5-10) |  |  |  | Emax [4]: 69% |
| CC(C)[C@H](NC(=O)[C@@H]1CSSC[C@H](NC(=O)[C@H](C)N)C(=O)N[C@@H](Cc2ccccc2)C(=O)N2Cc3[nH]c4ccccc4c3C[C@H]2C(=O)N[C@@H](CCCN)C(=O)N[C@@H](Cc2ccc(O)cc2)C(=O)N1)C(=O)O |  | inactive |  | EC50 (Urotensin-2 receptor [1]): Not Active; IC50 (Urotensin-2 receptor [2]; read-out: pIC50 (converted)): > 10000 nM |
| CC(C)[C@H](NC(=O)[C@@H]1CSSC[C@H](NC(=O)[C@H](C)N)C(=O)N[C@@H](Cc2ccccc2)C(=O)N2CCc3ccccc3[C@H]2C(=O)N[C@@H](CCCCN)C(=O)N[C@@H](Cc2ccc(O)cc2)C(=O)N1)C(=O)O | 22 | 126% |  | IC50 (Urotensin-2 receptor [2]; read-out: IC50): 10 nM |
| CC(C)[C@H](NC(=O)[C@@H]1CSSC[C@H](NC(=O)[C@H](C)N)C(=O)N[C@@H](Cc2ccccc2)C(=O)N2Cc3ccccc3C[C@H]2C(=O)N[C@@H](CCCCN)C(=O)N[C@@H](Cc2ccc(O)cc2)C(=O)N1)C(=O)O |  |  | > 1000 | Emax [4]: 43%; IC50 (Urotensin-2 receptor [2]; read-out: pIC50 (converted)): > 10000 nM |
| CC(C)[C@H](NC(=O)[C@@H]1CSSC(C)(C)[C@H](NC(=O)[C@H](C)N)C(=O)N[C@@H](Cc2ccccc2)C(=O)N2CCc3ccccc3[C@H]2C(=O)N[C@@H](CCCCN)C(=O)N[C@@H](Cc2ccc(O)cc2)C(=O)N1)C(=O)O |  |  |  | EC50 (Urotensin-2 receptor [1]): Not Active |
| CC(C)[C@H](NC(=O)[C@@H]1CSSC[C@H](NC(=O)[C@H](C)N)C(=O)N[C@@H](Cc2ccccc2)C(=O)N[C@@H](CC2CCCCC2)C(=O)N[C@@H](CCCCN)C(=O)N[C@@H](Cc2ccc(O)cc2)C(=O)N1)C(=O)O |  |  | > 1000 | Emax [4]: 77% |
| CC(C)[C@H](NC(=O)[C@@H]1CSSC(C)(C)[C@@H](NC(=O)[C@H](C)N)C(=O)N[C@@H](Cc2ccccc2)C(=O)N2CCc3ccccc3[C@H]2C(=O)N[C@@H](CCCCN)C(=O)N[C@@H](Cc2ccc(O)cc2)C(=O)N1)C(=O)O |  | inactive |  |  |
| CC(C)[C@H](NC(=O)[C@@H]1CSSC[C@@H](NC(=O)[C@H](CC(=O)O)NC(=O)[C@H]2CCCN2C(=O)[C@@H](NC(=O)[C@@H](N)CCC(=O)O)[C@@H](C)O)C(=O)N[C@H](Cc2ccccc2)C(=O)N[C@@H](Cc2c[nH]c3ccccc23)C(=O)N[C@H](CCCCN)C(=O)N[C@@H](Cc2ccc(O)cc2)C(=O)N1)C(=O)O |  | 117% |  |  |
| CC(C)[C@H](NC(=O)[C@@H]1CSSC[C@H](NC(=O)[C@H](C)N)C(=O)N[C@@H](Cc2ccccc2)C(=O)N[C@H](Cc2cccc3ccccc23)C(=O)N[C@@H](CCCCN)C(=O)N[C@@H](Cc2ccc(O)cc2)C(=O)N1)C(=O)O | 825 |  |  | Emax [4]: 34% |
| CC(C)[C@H](NC(=O)[C@@H]1CSSC[C@H](NC(=O)[C@H](C)N)C(=O)N[C@@H](Cc2ccccc2)C(=O)N[C@H]2Cc3c([nH]c4ccccc34)CN(C2=O)[C@@H](CCCCN)C(=O)N[C@@H](Cc2ccc(O)cc2)C(=O)N1)C(=O)O | 181 | 51% | 380 | IC50 (Urotensin-2 receptor [2]; read-out: IC50): 808 nM |
| CC(C)[C@H](NC(=O)[C@@H]1CSSC[C@H](NC(=O)[C@H](C)N)C(=O)N[C@@H](Cc2ccccc2)C(=O)N[C@@H]2Cc3c([nH]c4ccccc34)CN(C2=O)[C@@H](CCCCN)C(=O)N[C@@H](Cc2ccc(O)cc2)C(=O)N1)C(=O)O | 159 | 148% | 162 | IC50 (Urotensin-2 receptor [2]; read-out: IC50): 60 nM |
| CC(C)[C@H](NC(=O)[C@@H]1CSSC[C@H](NC(=O)[C@H](CC(=O)O)NC(=O)[C@@H]2CCCN2C(=O)[C@@H](NC(=O)[C@@H](N)CCC(=O)O)[C@@H](C)O)C(=O)N[C@@H](Cc2ccccc2)C(=O)N[C@@H](Cc2c[nH]c3ccccc23)C(=O)N[C@@H](CCCCN)C(=O)N[C@@H](Cc2ccc(O)cc2)C(=O)N1)C(=O)O [HUMAN UROTENSIN II] | 1 |  | 0.832 |  |
